Test results taken from patent US20260167629A1, “NOVEL INDAZOLE DERIVATIVE OR PHARMACEUTICALLY ACCEPTABLE SALT THEREOF, AND USE THEREOF” (KOREA UNIVERSITY RESEARCH AND BUSINESS FOUNDATION, priority 2022, published 2026).

Key:
JIMT-1 cell line = test: MTS cell viability assay in JIMT-1 cell line; assay type: cell-based; conditions: Homo sapiens, JIMT-1, 72 hours
Description: The control group was treated with DMSO as an untreated group (0 μM) of the indazole derivative of the present disclosure.
(§1) Specifically, cells were attached to 96 well plates for 24 hours, and then treated with the indazole derivatives for 72 hours. Thereafter, the cells were chromogenized with MTS for 4 hours, and the absorbance was measured at 490 nm using a Spectramax Plus384 microplate analyzer.
HER2 positive breast cancer (HER2+BC) cell lines, BT474 (cell seeding numbers: 2.4 (BT474)×10^4 cells/wells (confluency≥50%)) sensitive to trastuzumab and JIMT-1 (cell seeding numbers: 1.0 (JIMT-1)×10^4 cells/wells (confluency>30%)) resistant to trastuzumab were used in the experiment.
(§2) In this case, the cell lines were treated with the benzopyran derivative at a concentration of 10 μM for 72 hours and the cell lines were treated with the indazole derivative at a concentration of 10 μM for 72 hours, and then the cell viability was measured.

MDA-MB-231 cell line [1] = test: MTS cell viability assay in MDA-MB-231 cell line; assay type: cell-based; conditions: Homo sapiens, MDA-MB-231, 72 hours
Description: A HER2 positive breast cancer (HER2+BC) cell line, JIMT-1 (cell seeding numbers: 1.0 (JIMT)×10^4 cells/wells (confluency≤30%)) and a triple-negative breast cancer (TNBC) cell line, MDA-MB-231 (cell seeding numbers: 1.0 (M231)×10^4 cells/wells (confluency≤30%) were used in the experiment.
The above cell lines were cultured in Dulbecco's Modified Eagle's Medium (DMEM) or Eagle's minimum Essential Medium (MEM) each containing 10% fetal bovine serum (FBS), streptomycin-penicillin (100 U/ml), and Fungizone (0.625 μg/ml), respectively under 5% CO2, 37° C. environment.
The JIMT-1 cell line and MDA-MB-231 cell line were treated with the indazole derivatives (formulas 1-1 to 1-53) of the present disclosure at a concentration of 10 μM each for 72 hours, and then cell viability was measured using the MTS assay technique. The control group was treated with DMSO as an untreated group (0 μM) of the indazole derivative of the present disclosure.
as §1, with “analyzer. The significance between the control group and the experimental group was verified using an unpaired Students t-test (*p<0.01; DMSO control vs indazole series).” for “analyzer.”
HER2-positive breast cancer cell lines, BT474 (cell seeding numbers: 2.0 (JIMT)×10^4 cells/wells (confluency≤30%)) sensitive to trastuzumab, and JIMT-1 (cell seeding numbers: 1.0 (JIMT)×10^4 cells/wells (confluency≤30%)) resistant to trastuzumab, and a triple-negative breast cancer cell line, MDA-MB-231 (cell seeding numbers: 1.0 (M231)×10^4 cells/wells (confluency≤30%)) were used.
The BT474, JIMT-1, and MDA-MB-231 cell lines were treated with compound 18c (formula 1-16) and compound 11k (formula 1-7) at concentrations of 0 (DMSO), 0.1, 0.5, 1, 5, 10, and 20 μM, respectively, for 72 hours, and then cell viability was measured using the MTS assay technique as explained by the description of Experimental Example 1. The cell viability experiment was performed independently three times, and the significance was verified by a One-Way Anova, Bonferroni post-hoc test (*p<0.01; DMSO control vs. compound 18c or compound 11k).
In addition, the JIMT-1 and MDA-MB-231 cell lines were treated with compound 11m (formula 1-9), 11n (formula 1-10) and compound 12k (formula 1-13) at concentrations of 0 (DMSO), 0.1, 1, 5, 10, and 20 μM, respectively, for 72 hours, and then cell viability was measured.
(§3) Meanwhile, triple-negative breast cancer cell lines MDA-MB-231 and BT549, and a mouse breast cancer cell line 4T1 were treated with compound 38 (formula 1-30) at concentrations of 0 (DMSO), 0.1, 0.5, 1, 2, 5, 10, and 20 μM for 72 hours, and then cell viability was measured.
as §2, with “The indazole derivative of the present disclosure was compared with the benzopyran derivative of the related art (KR 10-2304532) in terms of cell viability of the BT474, JIMT-1, and MDA-MB-231 cell lines (Table 1). In” for “In”

BT549 cell line [2] = test: MTS cell viability assay in BT549 cell line; assay type: cell-based; conditions: Homo sapiens, BT-549; BT549, 72 hours
Description: as §1, with “analyzer. The significance between the control group and the experimental group was verified using an unpaired Students t-test (*p<0.01; DMSO control vs indazole series).” for “analyzer.”
as §3

[3] = tested on: mouse breast cancer cell line 4T1; test: MTS cell viability assay in 4T1 cell line; assay type: cell-based; conditions: 4T1, 72 hours
Description: as §1, with “analyzer. The significance between the control group and the experimental group was verified using an unpaired Students t-test (*p<0.01; DMSO control vs indazole series).” for “analyzer.”
as §3

MDA-MB-231 cell line [4] = test: Annexin V/PI staining, type of cell death, MDA-MB-231; assay type: cell-based; conditions: MDA-MB-231, Annexin V/PI staining
Description: (§4) Meanwhile, triple-negative breast cancer cell lines, MDA-MB-231 and BT549 were treated with compound 38 (formula 1-30), and then the type of cell death was determined by Annexin V/PI staining.

BT549 cell line [5] = test: Annexin V/PI staining, type of cell death, BT549; assay type: cell-based
Description: as §4

MDA-MB-231 cell line [6] = test: Cell morphology by phase contrast microscopy, MDA-MB-231; assay type: cell-based; conditions: MDA-MB-231, 5 and 10 μM, 72 hours
Description: (§5) MDA-MB-231 and BT549 cell lines were treated with compound 38 (formula 1-30) at concentrations of 0 (DMSO), 5, and 10 μM for 72 hours. Then, the drug-induced cytotoxicity was assessed by observing changes in cell morphology using phase contrast microscopy. The photographs were taken at a magnification of ×200 using phase contrast microscopy.

BT549 cell line [7] = test: Cell morphology by phase contrast microscopy, BT549; assay type: cell-based; conditions: BT549, 5 and 10 μM, 72 hours
Description: as §5

[8] = tested on: JIMT-1 breast cancer cell line xenograft; test: Tumor growth in JIMT-1 xenograft mouse model, combination with paclitaxel; assay type: in vivo, Balb/c nude mice
Description: This experiment was performed in an in vivo environment using a xenograft mouse model transplanted with the JIMT-1 breast cancer cell line.
6-week-old mice (Balb/c nude mice) were purchased and raised in an environment where they could freely access food and water. The mice were acclimated for more than 7 days, and then were transplanted with tumor cells. Tumor cells were injected subcutaneously into the mammary gland tissue of JIMT-1 breast cancer cells at a density of 3×10^6 cells/mL per individual, and when the tumor reached a size of 50 to 100 mm^3, the indazole derivative of the present disclosure was administered intraperitoneally, and the tumor growth was measured.

[9] = Toxicity in JIMT-1 xenograft mice, combination with paclitaxel (body weight, AST, ALT, BUN); assay type: in vivo, Balb/c nude mice; conditions: combination study

**Q.** For `COc1c(C(=O)Nc2ccc3c(C)nn(CCCN4CCN(C)CC4)c3c2)ccc2c1C=CC(C)(C)O2` [compound 11n, 5-methoxy-2,2-dimethyl-N-(3-methyl-1-(3-(4-methylpiperazin-1-yl)propyl)-1H-indazol-6-yl)-2H-chromene-6-carboxamide], which IC50 (JIMT-1 cell line) is on record?
**A.** 3.28 µM

**Q.** What about the IC50 (MDA-MB-231 cell line [1]) of the same molecule?
**A.** 3.65 µM

**Q.** Which IC50 (JIMT-1 cell line) does the source give for `COc1c(C(=O)Nc2ccc3cnn(CCC4CCN(C)CC4)c3c2)ccc2c1C=CC(C)(C)O2` [compound 12k, 5-methoxy-2,2-dimethyl-N-(1-(2-(1-methylpiperidin-4-yl)ethyl)-1H-indazol-6-yl)-2H-chromene-6-carboxamide] here?
**A.** 5.56 µM

**Q.** What about the IC50 (MDA-MB-231 cell line [1]) of the same molecule?
**A.** 2.05 µM

**Q.** For `Cc1nn(CCC2CCN(C)CC2)c2cc(NC(=O)c3ccc4c(c3Cl)C=CC(C)(C)O4)ccc12` [compound 38, 5-chloro-2,2-dimethyl-N-(3-methyl-1-(2-(1-methylpiperidin-4-yl)ethyl)-1H-indazol-6-yl)-2H-chromene-6-carboxamide], which IC50 (MDA-MB-231 cell line [1]) is on record?
**A.** 3.67 µM

**Q.** What about the IC50 (BT549 cell line [2]) of the same molecule?
**A.** 4.84 µM

**Q.** And the IC50 [3]?
**A.** 1.21 µM

**Q.** What about the “type of cell death (apoptosis)” value (MDA-MB-231 cell line [4]) of the same molecule?
**A.** early and late apoptosis of cancer cells was induced

**Q.** What about the “type of cell death (apoptosis)” value (BT549 cell line [5]) of the same molecule?
**A.** early and late apoptosis of cancer cells was induced

**Q.** What about the “changes in cell morphology (cytotoxicity)” value (MDA-MB-231 cell line [6]) of the same molecule?
**A.** morphological changes in which the cytoplasm shrank

**Q.** What about the “changes in cell morphology (cytotoxicity)” value (BT549 cell line [7]) of the same molecule?
**A.** morphological changes in which the cytoplasm shrank

**Q.** Which tumor weight ([8]; measured after tumor resection) does the source give for `CC(=O)O[C@H]1C(=O)[C@@]2(C)[C@H]([C@H](OC(=O)c3ccccc3)[C@]3(O)C[C@H](OC(=O)[C@H](O)[C@@H](NC(=O)c4ccccc4)c4ccccc4)C(C)=C1C3(C)C)[C@]1(OC(C)=O)CO[C@@H]1C[C@@H]2O` [paclitaxel, reference compound] here?
**A.** 488.333 mg

**Q.** What about the tumor volume ([8]; measured at 40 days after drug administration) of the same molecule?
**A.** 813.356 mm^3

**Q.** And the “AST and ALT levels, BUN assay” value ([9]; blood of the mouse model)?
**A.** levels similar to those of the control group

**Q.** What about the body weight [9] of the same molecule?
**A.** remained unchanged
